Test results reported in US11268068B2, “In vitro model of metastatic cancer” (THE JOHNS HOPKINS UNIVERSITY, priority 2014, dated 2022).

Tests used:
[1] = test system: human cancer cells in 3D-culture; conditions: Gomes et al., Oncogene 2015; cited from earlier work
[2] = test system: parental and rs-monolayer population of Huh7 cells; assay: Chemosensitivity assay (cell viability after 3-BrPA); format: cell-based, human; conditions: Huh7 (luc-Huh7) cells, rs-monolayer vs parental monolayer, FIG. 7B
Protocol: Assessment of the chemosensitivity of parental cell population and rs-monolayer population was performed using the antiglycolytic agent, 3-bromopyruvate (3-BrPA). In brief, cells were plated in 96-well plates the day before treatment. Analysis of cell viability following the addition of 3-BrPA was performed as described other cell lines^22.

## COc1cccc2c1C(=O)c1c(O)c3c(c(O)c1C2=O)C[C@@](O)(C(=O)CO)C[C@@H]3O[C@H]1C[C@H](N)[C@H](O)[C@H](C)O1 [doxorubicin]
[1]
  Sensitivity of 3D-culture compared with corresponding monolayer culture: more sensitive

## O=C(O)C(=O)CBr [3-BrPA, 3-bromopyruvate]
[2]
  IC50 of rs-monolayer cells compared to the parental population: An increase in IC50 of rs-monolayer cells compared to the parental population
[2]; listed as 3-bromopyruvate
  IC50 of rs-monolayer cells compared to the parental population: rs-monolayer cells require a higher concentration of drug
